Results published in US20150265670A1, “AGENT FOR PREVENTING OR IMPROVING DECLINE IN BRAIN FUNCTION” (KYOWA HAKKO BIO CO., LTD., priority 2012, published 2015).

Experiments:
[1] = test system: bilateral common carotid arteries occlusion C57BL/6J mice; test: Passive avoidance test; assay type: in vivo; conditions: single agent, after 7 days administration; for latency time spent in the light compartment, memory behavior: high dose 100 mg/kg oral; for latency time spent in the light compartment: low dose 40 mg/kg oral, compared to Group 2
Procedure: (§1) Experimental Example: 10-week-old male C57BL/6J mice (CLEA Japan, Inc. approximately 25 g of average body weight per mouse) were preliminarily acclimated for 1 week, and provided for experiments. Citrulline and glutathione were obtained from KYOWA HAKKO BIO CO., LTD.
(§2) C57BL/6J mice were divided into a sham-operation group (Group 1) and a bilateral common carotid arteries occlusion group, which was performed under halothane anesthesia for 20 minutes. One day after reperfusion, the bilateral common carotid arteries occlusion group was further divided into a distilled water-treated group (Group 2), a low-dose citrulline-treated group (40 mg/kg: Group 3), a low-dose glutathione-treated group (40 mg/kg: Group 4), a high-dose citrulline-treated group (100 mg/kg: Group 5), a high-dose glutathione-treated group (100 mg/kg: Group 6), and a combination treatment group of a low dose of citrulline and a low dose of glutathione (each 40 mg/kg: Group 7). Each sample was orally administered for 12 days. One week after starting administration, learning memory-improving effects were examined by a Y-maze test, a passive avoidance test, and a novel object recognition test. After evaluating learning memory functions, the hippocampus was removed and viability of hippocampal nerve cells was evaluated.
The passive avoidance test was performed using a box consisting of dark (25×25×25 cm) and light compartments (14×10×25 cm) and being equipped with an electrical stimulation apparatus at the bottom of the dark compartment. During training, as soon as the mouse entered the dark compartment from the light compartment, the door was closed, and an electrical stimulation (0.3 mA, for 2 seconds) was delivered. Twenty four hours after training, the mouse was placed again in the light compartment, and the latency time spent in the light compartment was recorded with a maximum latency of 300 seconds.

[2] = test system: bilateral common carotid arteries occlusion C57BL/6J mice; test: Novel object recognition test; assay type: in vivo; conditions: single agent, after 7 days administration; for frequency of exploring the novel object, memory behavior: high dose 100 mg/kg oral; for frequency of exploring the novel object: low dose 40 mg/kg oral
Procedure: as §1, §2
The novel object recognition test was performed after mice were individually acclimated to the open field apparatus (35×25×35 cm) for 2 days. During training, mice were allowed to explore freely for 10 minutes in an apparatus where two identical objects were symmetrically placed. After 1 hour, one object was replaced by a novel object, and mice were allowed to explore freely for 5 minutes. Object exploration was defined as standing on the objects, touching the object with the nose, or sniffing the object within 1 cm from the object. A ratio of the frequency of exploring the familiar or novel object over the total exploration frequency was calculated, and used as an index for visual recognition memory.

[3] = test system: hippocampal nerve cells (CA1 pyramidal cell layer); test: Evaluation of viability of hippocampal nerve cells; assay type: in vivo, mice; conditions: single agent, 12 days administration
Procedure: as §1, §2
Twelve days after bilateral occlusion of the common carotid arteries, mice were anesthetized with pentobarbital sodium, and perfused with ice-cold phosphate buffer (PBS, pH 7.4) until the blood in the body was completely removed. Immediately, mice were perfused with a fixative solution containing 4% paraformaldehyde. The brain tissues were fixed at 4° C. for 24 hours, and coronal sections having a thickness of 50 μm were prepared. Serial sections containing the hippocampus were stained with propidium iodide (PI, 5 μmol/L) dissolved in PBS and observed under a fluorescent microscope. Surviving and non-surviving nerve cells in the CA1 pyramidal cell layer of the hippocampus were counted at 1.4 to 1.8 mm posterior to bregma, and cells with PI-positive nuclei and typical morphological characteristics were defined as […]. The cell viability was calculated from a ratio to the average number of surviving nerve cells in Group 1.

[4] = test system: bilateral common carotid arteries occlusion C57BL/6J mice; test: Y-maze test; assay type: in vivo; conditions: single agent, after 7 days administration; for spontaneous alternation behavior rate (Alternation), memory behavior: high dose 100 mg/kg oral; for spontaneous alternation behavior rate (Alternation): low dose 40 mg/kg oral, compared to distilled water group (Group 2)
Procedure: as §1, §2
In the Y-maze test, a Y-maze apparatus with three arms (50×16×32 cm) was used. Mice were placed at any one arm of the Y-maze and were allowed to explore freely through the maze for 8 minutes. The sequence of arm entries was recorded. The number of entries into each arm was counted during the measurement time, which was defined as the total number of entries. Of them, the successive entry into the three different arms was examined, and this number was defined as the spontaneous alternation behavior number. The spontaneous alternation behavior number was divided by (the total number of arm entries minus two), and then multiplied by 100, which was defined as the spontaneous alternation behavior rate (Alternation) and used as an index for spontaneous alternation behavior.

[5] = low dose 40 mg/kg oral, compared to Group 2

| Compound | latency time spent in the light compartment, memory behavior [1] | latency time spent in the light compartment [1] | frequency of exploring the novel object, memory behavior [2] | frequency of exploring the novel object [2] | viability of hippocampal nerve cells ([3]; high dose 100 mg/kg oral) | viability of hippocampal nerve cells [3, 5] | spontaneous alternation behavior rate (Alternation), memory behavior [4] | spontaneous alternation behavior rate (Alternation) [4] |
| --- | --- | --- | --- | --- | --- | --- | --- | --- |
| N[C@@H](CCC(=O)N[C@@H](CS)C(=O)NCC(=O)O)C(=O)O [glutathione] | remarkably improved effect of memory behavior | cannot be improved | remarkably improved effect of memory behavior | cannot be increased | nerve cell-protecting effect | cannot be improved | remarkably improved effect of memory behavior | cannot be improved |
| NC(=O)NCCC[C@H](N)C(=O)O [citrulline] | remarkably improved effect of memory behavior | cannot be improved | remarkably improved effect of memory behavior | cannot be increased | nerve cell-protecting effect | cannot be improved | remarkably improved effect of memory behavior | cannot be improved |
